Test results from US20210330611A1, “THERAPY FOR NEUROLOGICAL DISEASES/DISORDERS” (priority 2020, published 2021).
Counter-ions that a name gives are not always drawn.

What was measured:
[1] = system: fibrin-induced microglia activation; experiment: Image-based assay of fibrin-induced microglia activation (HTS and dose response); format: cell-based, rat; settings: Rattus norvegicus, Microglia, primary microglia HTS, fibrin stimulation, compounds at 10 μM; read-out: Fibrin % inhibition
[2] = system: LPS-induced microglia activation; experiment: Image-based assay of LPS-induced microglia activation (HTS and dose response); format: cell-based, rat; settings: Rattus norvegicus, Microglia, primary microglia HTS, LPS stimulation, compounds at 10 μM; read-out: LPS % inhibition
[3] = system: fibrin- and LPS-induced microglia activation; experiment: cells; format: cell-based, rat; settings: classification by fibrin and LPS inhibition, HTS at 10 μM
[4] = system: primary rat microglia; settings: rat
[5] = system: primary rat microglia; experiment: Cell toxicity (dead cells, size <150 μm2) in coated fibrin (cFib) assay; settings: primary microglia HTS, fibrin assay, dead cells (size <150 μm2), compounds at 10 μM;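 also: share of dead cells sized under 150 µm2 at 10 µM in fibrin-stimulated microglia HTS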

SMILES | inhibition at 10 µM [1] [%] | inhibition at 10 µM [2] [%] | Quadrant (FIG. 5b) [3] | LPS % cell toxicity [4] [%] | Fibrin % cell toxicity [5] [%]
CCOC(=O)c1ccc(O)cc1 [Ethylparaben] | -5 | 8 | Q4 | 1 | 1
CC(O)(P(=O)(O)O)P(=O)(O)O [Etidronic acid] | -16 | 18 | Q4 | 0 | 1
Cc1ccc(-c2ncc(Cl)cc2-c2ccc(S(C)(=O)=O)cc2)cn1 [Etoricoxib] | 15 | -4 | Q4 | 0 | 1
CCOC(=O)/C=C(C)/C=C/C=C(C)/C=C/c1c(C)cc(OC)c(C)c1C [Etretinate] | -19 | 9 | Q4 | 0 | 1
CC1CC(OC(=O)C(O)c2ccccc2)CC(C)(C)N1C (centres unmarked) [Eucatropine Hydrochloride] | 1 | 24 | Q4 | 0 | 1
C=CCc1ccc(O)c(OC)c1 [Eugenol] | 37 | 20 | Q4 | 0 | 0
Cc1cc(-c2ccc(/N=N/c3ccc4c(S(=O)(=O)O)cc(S(=O)(=O)O)c(N)c4c3O)c(C)c2)ccc1/N=N/c1ccc2c(S(=O)(=O)O)cc(S(=O)(=O)O)c(N)c2c1O [Evans Blue] | -37 | 7 | Q4 | 0 | 0
CCCCCCOc1ccccc1C(N)=O [Exalamide] | -15 | 18 | Q4 | 0 | 1
O=C1[C@H](CC[C@H](O)c2ccc(F)cc2)[C@@H](c2ccc(O)cc2)N1c1ccc(F)cc1 [Ezetimibe] | 41 | 27 | Q4 | 0 | 1
CC(=O)OCC(CCn1cnc2cnc(N)nc21)COC(C)=O [Famciclovir] | -22 | 14 | Q4 | 1 | 0
CC(C)c1c(CN(C)C(C)Cc2ccccc2)n(C)n(-c2ccccc2)c1=O (centres unmarked) [Famprofazone] | -3 | 15 | Q4 | 0 | 1
O=S(=O)(c1cccc2cnccc12)N1CCCNCC1 [Fasudil Hydrochloride] | -72 | -21 | Q4 | 0 | 1
Cc1nc(-c2ccc(OCC(C)C)c(C#N)c2)sc1C(=O)O [Febuxostat] | 3 | 10 | Q4 | 0 | 1
NC(=O)OCC(COC(N)=O)c1ccccc1 [Felbamate] | -32 | 0 | Q4 | 0 | 1
CCOC(=O)C1=C(C)NC(C)=C(C(=O)OC)C1c1cccc(Cl)c1Cl (centres unmarked) [Felodipine] | 2 | 14 | Q4 | 0 | 1
O=C(CCCl)NCCc1ccccc1 [Fenaclon] | 8 | 16 | Q4 | 0 | 1
